Patent EP4653001A1, “TREATMENT, DIAGNOSIS AND/OR PROGNOSIS OF MITOCHONDRIAL DISEASES” (Universidad Autónoma de Madrid, priority 2024, dated 2025)

Columns and labels:
Format in all cases: cell-based
143B cells [1] = experiment: PPP activity measurement in 143B cells; conditions: 24 h
Experimental: The determination of pentose-phosphate pathway (PPP) activity was conducted by assessing the difference between 14CO2 production from 1-14C-glucose, which decarboxylates through the 6-phosphogluconate dehydrogenase-catalyzed reaction, and that of 6-^14C-glucose, which decarboxylates through the tricarboxylic acid cycle.
Increased lactate secretion is considered a good indicator of enhanced glycolytic rates, which is a common feature of ETC-inhibited cells as they switch from OXPHOS to glycolysis to maintain ATP levels. […] We culture 143B cells in the presence of Piericidin for 24 h and PPP activity and lactate release, as a proxy of glycolysis, were measured. As expected, lactate detection in the media was higher in CI-inhibited cells. […] Next, we wonder if in this context, glucose can be overused by glycolysis and therefore diverted away from the PPP. Diseases associated with impaired mitochondrial function negatively impact high energy demanding tissues such as the brain. As such, neurons that are highly sensitive to ETC inhibition also rely strongly on glucose metabolism. Thus, we used mouse cortical neurons to determine the rates of glycolysis and PPP as glucose levels become limiting. Control and Piericidin treated neurons where cultured in media containing supraphysiological (25 mM), physiological (5 mM) or subphysiological concentrations of glucose (2,5 mM). […]

143B cells [2] = experiment: Lactate release in 143B cells (proxy of glycolysis); conditions: 24 h
Experimental: Increased lactate secretion is considered a good indicator of enhanced glycolytic rates, which is a common feature of ETC-inhibited cells as they switch from OXPHOS to glycolysis to maintain ATP levels. […] We culture 143B cells in the presence of Piericidin for 24 h and PPP activity and lactate release, as a proxy of glycolysis, were measured. As expected, lactate detection in the media was higher in CI-inhibited cells. […] Next, we wonder if in this context, glucose can be overused by glycolysis and therefore diverted away from the PPP. Diseases associated with impaired mitochondrial function negatively impact high energy demanding tissues such as the brain. As such, neurons that are highly sensitive to ETC inhibition also rely strongly on glucose metabolism. Thus, we used mouse cortical neurons to determine the rates of glycolysis and PPP as glucose levels become limiting. Control and Piericidin treated neurons where cultured in media containing supraphysiological (25 mM), physiological (5 mM) or subphysiological concentrations of glucose (2,5 mM). […] Decreased PPP activity under low glucose (2,5 mM) correlated with a rapid decline in NADPH/NADP+ levels in CI-inhibited cells. Conversely, glucose availability had no effect on ATP levels at this timepoint.

143B cells [3] = experiment: Stable isotope tracing with uniformly labeled 13C-glutamine; conditions: [U-13C]glutamine
Experimental: 1-5.0×10^6 cells were harvested on dry ice with 1 mL pre-chilled 80% HPLC-grade methanol (Fluka Analytical). The cell mixture was incubated for 15 min on dry ice prior to centrifugation at 18,000 × g for 10 min at 4°C. The supernatant was retained, and the remaining cell pellet was resuspended in 800 µL chilled 80% methanol and centrifuged. Supernatant was combined with the previous retention and was lyophilized using a SpeedVac (Thermo Fisher). Lyophilized samples were resuspended in 20 µL ultrapure water and subjected to metabolomics profiling using the AB/SCIEX 5500 QTRAP triple quadrupole instrument. Data analysis was performed using the GiTools software. 13C-labeled glutamine and glucose was acquired in SIGMA (605166 and 389374).
Encouraged by the beneficial effects of ME1 and because ME1-dependent NADPH production is linked to intracellular malate levels, we sought to investigate the metabolic pathways and nutrients that maintain malate production upon disruption of the ETC. It is firmly believed that in cells and tissues with defective ETC function, elevated NADH/NAD+ ratio inhibits the Pyruvate dehydrogenase complex (PDC), suppressing pyruvate entry into the mitochondria and forcing its channelling towards the Lactate Dehydrogenase (LDH) in the cytosol. […] To investigate the metabolic routes that ETC-inhibited cells used to generate glutamine-derived malate, we performed an MS-based stable isotope tracing study. DMSO and Piericidin treated 143B cells were cultured in glucose-DMEM supplemented with 2 mM of uniformly labeled [^13C]glutamine, and the incorporation of ^13C into the TCA cycle and related metabolic intermediates was quantified. Oxidative metabolism of [U-^13C]glutamine would generate M+4 isotopologues of oxaloacetate (OAA) and malate, while reductive carboxylation due to ETC inhibition (TCA cycle running in a counterclockwise direction) would produce M+3 forms of OAA and malate. DMSO-treated 143B cells used glutamine as the major anaplerotic precursor, resulting in a large amount of malate M+4. As expected, the oxidation of glutamine via the TCA cycle in CI-inhibited cells was severely diminished with a 5-fold decreased in M+4 labeled malate. Nevertheless, these cells produced citrate M+5 through reductive carboxylation of glutamine-derived a-ketoglutarate. This reaction involves addition of an unlabeled carbon by IDH2 acting in reverse relative to the canonical oxidative TCA cycle. Malate M+3 also rose more than a ~2-fold in CI-inhibited cells and was likely formed after cleavage of citrate M+5 by ATP-citrate lyase (ACLY) since this induction was blunted in ACLY KO cells. Thus, cells with defective ETC use glutamine-dependent reductive carboxylation rather than oxidative metabolism as the major pathway of malate production. […]

[4] = CI-inhibited vs DMSO 143B cells

CC=C(C)C(O)C(C)C=C(C)C=CCC(C)=CCc1nc(OC)c(OC)c(O)c1C (stereo not drawn) [Piericidin, Piericidin A]
PPP activity (143B cells [1]): significant increase
lactate detection in the media (143B cells [2]): higher
decrease in M+4 labeled malate (143B cells [3]; [4]): 5 fold
rise of Malate M+3 (143B cells [3]; [4]): > 2 fold
labeling of malate M+3 (143B cells [3]; control and PC KO cells, 24 h): increasing
malate M+4 (143B cells [3]; control and PC KO cells, 24 h): reduction
